Reference: paper PMC10037499, “High-Throughput Screen Reveals the Structure–Activity Relationship of the Antimicrobial Lasso Peptide Ubonodin” (ACS Central Science, 2023)
Where a SMILES comes first, the peptide text is derived from it.

Key:
E. coli MC1061 = test: Spot dilution assay of E. coli producing the ubonodin variant from pUboABC; format: cell-based; details: variant in pUboABC backbone in E. coli MC1061, induction with 100 μM IPTG, ten-fold serial dilutions, biological duplicates
Procedure, shortened: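 E. coli MC1061 carrying the plasmids was grown at 37 °C in LB with 100 μg/mL ampicillin to OD600 0.3, then induced with 100 μM IPTG. Samples taken before induction and at later timepoints were PBS-washed, spotted as ten-fold dilutions on ampicillin/0.2% glucose LB plates, and imaged after 16 h at 37 °C.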

B. cenocepacia AU0756 = test system: B. cenocepacia AU0756
Procedure, shortened: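 Ubonodin variants were tested by broth microdilution following CLSI guidelines against clinical Burkholderia cenocepacia isolates AU0756 and AU24362.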

[1] = test system: RNA polymerase (RNAP) in E. coli MC1061; test: High-throughput growth-based screen with NGS (enrichment value) for RNA polymerase inhibition; format: cell-based; set-up: key to Experimental observation (enrichment observed in the screen): Dropout: Many variants inhibit RNAP so strongly that they cannot be detected by NGS after IPTG induction (referred to as dropout variants); details: Table S4; variants whose MICs were tested
Procedure, shortened: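 E. coli MC1061 carrying ubonodin single/double variant plasmid libraries was grown and induced with 10 µM or 100 µM IPTG; surviving colonies were sequenced by NGS. Enrichment value = log2 of variant frequency post-IPTG over frequency in the cloning transformation library; depletion indicates RNAP inhibition.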

SMILES: CC[C@H](C)[C@@H]1NC(=O)[C@H](Cc2c[nH]cn2)NC(=O)CNC(=O)[C@H](CC(=O)O)NC(=O)CNC(=O)CNC(=O)CC[C@@H](C(=O)N[C@@H](Cc2ccc(O)cc2)C(=O)N[C@@H](Cc2ccccc2)C(=O)N[C@@H](CC(N)=O)C(=O)N[C@@H](CCCNC(=N)N)C(=O)N2CCC[C@H]2C(=O)N[C@@H](CCSC)C(=O)N[C@@H](Cc2c[nH]cn2)C(=O)N2CCC[C@H]2C(=O)N[C@@H](Cc2c[nH]cn2)C(=O)N[C@@H](CC(=O)O)C(=O)N[C@@H](Cc2c[nH]c3ccccc23)C(=O)N[C@@H](CCC(N)=O)C(=O)N[C@H](C(=O)N[C@@H](CCSC)C(=O)N[C@@H](CC(=O)O)C(=O)N[C@@H](CO)C(=O)NCC(=O)N[C@@H](Cc2ccc(O)cc2)C(=O)N[C@@H](Cc2ccc(O)cc2)C(=O)NCC(=O)O)[C@@H](C)CC)NC(=O)[C@H](C)NC1=O [S5H I16P] (HELM PEPTIDE1{G.G.D.G.H.I.A.E.Y.F.N.R.P.M.H.P.H.D.W.Q.I.M.D.S.G.Y.Y.G}$PEPTIDE1,PEPTIDE1,1:R1-8:R3$$$V2.0)
- Inhibits Growth (E. coli MC1061): Yes
- B. cenocepacia AU0756 MIC (B. cenocepacia AU0756): 8 µM
- Experimental observation (enrichment observed in the screen) [1]: Dropout
